≈ marks a conversion by molar mass, not a printed value. Where “and” joins values, the source holds several entries; their conditions need not be identical. Equal entries are not always repeated. Where two headings read alike, the source gives them in different places. Values belong to the compound of their own block, whether it stands above or below them.
Tests used:
[1] = Human plasma protein binding (PPB); type: in vitro ADME; settings: human, plasma
[2] = Human liver microsome intrinsic clearance; type: in vitro ADME
[3] = Rat hepatocyte intrinsic clearance; type: in vitro ADME
[4] = LogD7.4 (Chrom Log D); type: physicochemical
Text: To guide our initial SAR exploration work, we obtained liver microsomal intrinsic clearance data for 5 of the 18 compounds assayed by CO-ADD (Supporting Information - CDCO Report and Supporting Information - Biology). We then acquired intrinsic clearance (CLint), plasma protein binding (PPB), and solubility data on further compounds throughout the SAR campaign (Supporting Information - Biology, Tables S3 and S4). […] The more polar compounds (lower LogD) had reduced PPB and were more metabolically stable.
Table S4. ADME and Pharmacokinetics: compounds only appearing in the Supplementary […]
MRSA Aqueous HLM CLint Rat Hep CLint
Cmpd MIC Solubility Human PPB (%) (µL/min/mg (µL/min/10x6 LogD7.4
(µg/mL) (µM) protein) cells)
(§1) ADME and toxicity for compounds were measured according to procedures outlined in the manuscript submitted in parallel to this one;2 other procedures were used for those compounds analysed by Monash University (in vitro ADME) or UCL (toxicity), both described in the main

[5] = Aqueous solubility; type: physicochemical; settings: for solubility: thermodynamic from solid
[6] = test system: PMM (primary mouse macrophages); assay: Toxicity against PMM; type: cell-based; settings: PMM
Experimental: as §1

[7] = test system: Staphylococcus aureus NCTC 13373 (mecA-positive; methicillin-resistant); assay: In vitro antibacterial activity, MIC (UCL School of Pharmacy assay), MRSA; type: cell-based; settings: Staphylococcus aureus
Method in brief: (§2)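 Each organism was taken from overnight tryptone soya agar, suspended in PBS at A600 0.1, diluted 1:100 in isosensitest broth and added to serially diluted compound (32 to 0.03 μg/mL).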

[8] = test system: Enterococcus faecalis ATCC 51299 (vanA-positive; vancomycin-resistant); assay: In vitro antibacterial activity, MIC (UCL), VRE; type: cell-based
Method in brief: as §2

[9] = test system: MRC-5SV2 (human lung fibroblast cell line); assay: Toxicity against MRC-5SV2; type: cell-based; settings: MRC5 cells
Experimental: as §1

[10] = test system: S. aureus ATCC 25923 (methicillin-susceptible); assay: In vitro antibacterial activity, MIC (UCL), MSSA; type: cell-based, Staphylococcus aureus; settings: Staphylococcus aureus
Method in brief: as §2

[11] = test system: VSE; assay: In vitro antibacterial activity, MIC, VSE; type: cell-based; settings: read-out: VSE MIC (UCL)
[12] = human plasma, NEU, read-out: Human PPB (NEU) (converted)
[13] = human liver microsomes, NEU, read-out: HLM CLint (NEU)
[14] = chromatographic system (Chrom Log D), pH 7.4, NEU, read-out: LogD 7.4 (NEU)
[15] = NEU, read-out: Aqueous Solubility (NEU)
[16] = rat hepatocytes, NEU, read-out: Rat Hep CLint (NEU)
[17] = human plasma, NEU, read-out: Human PPB (%) (NEU) (converted)
[18] = UCL assay, read-out: MSSA MIC (ug/mL) (UCL)
[19] = rat hepatocytes, NEU, read-out: Rat Hep CLint (uL/min/10x6 cells) (NEU)
[20] = NEU, read-out: Aqueous Solubility (uM) (NEU)
[21] = UCL assay, read-out: MRSA MIC (ug/mL) (UCL)
[22] = human liver microsomes, NEU, read-out: HLM CLint (uL/min/mg protein) (NEU)
[23] = read-out: Human PPB (converted)
[24] = human, liver microsomes, read-out: HLM CLint
[25] = rat, hepatocytes, Figure 4, read-out: Rat Hep CLint

SMILES: Cc1ccc(-c2c(-c3ccccn3)nc3cc(Cl)ccn23)cc1 [OSA_000978]
fraction unbound [1, 12]: 0.0055
HLM CLint (NEU) ([2]; human liver microsomes, NEU): 65.6 uL/min/mg protein
Rat Hep CLint (NEU) ([3]; rat hepatocytes, NEU): 104 uL/min/10x6 cells
chromatographic logD [4, 14]: 3.1
Aqueous Solubility (NEU) ([5]; NEU): 5 µM
MIC ([7]; UCL, read-out: MRSA MIC (UCL)): 4 µg/mL (≈ 12.5 µM)
MIC ([8]; read-out: VRE MIC (UCL)): 8 µg/mL (≈ 25 µM)

SMILES: COc1ccc2nc(-c3ccccn3)c(N(C)c3cc(F)cc(F)c3)n2c1 [OSA_000998]
fraction unbound [1, 12]: 0.0085
microsomal CLint [2, 13]: 100 µL/min/mg
MIC ([10]; read-out: MSSA MIC (UCL)): 8 µg/mL (≈ 21.8 µM)
hepatocyte CLint [3, 16]: > 300 µL/min/1e6 cells
chromatographic logD [4, 14]: 4
MIC [11]: 16 µg/mL (≈ 43.7 µM)
solubility [5, 15]: 8 µM (≈ 2.93 µg/mL)
MIC ([7]; UCL, read-out: MRSA MIC (UCL)): 8 µg/mL (≈ 21.8 µM)
MIC ([8]; read-out: VRE MIC (UCL)): 32 µg/mL (≈ 87.3 µM)

SMILES: COc1ccnc(-c2nc3cc(OC)ccn3c2N(C)c2ccc(F)cc2)c1 [OSA_001000]
fraction unbound [1, 12]: < 0.033
microsomal CLint [2, 13]: 51.2 µL/min/mg
MIC ([10]; read-out: MSSA MIC (UCL)): 8 µg/mL (≈ 21.1 µM)
hepatocyte CLint [3, 16]: > 300 µL/min/1e6 cells
chromatographic logD [4, 14]: 3.1
MIC [11]: 8 µg/mL (≈ 21.1 µM)
solubility [5, 15]: 12 µM (≈ 4.54 µg/mL)
MIC ([7]; UCL, read-out: MRSA MIC (UCL)): 2 µg/mL (≈ 5.29 µM)
MIC ([8]; read-out: VRE MIC (UCL)): 8 µg/mL (≈ 21.1 µM)

SMILES: CN(c1ccc(F)cc1)c1c(-c2ccccn2)nc2c(F)cccn12 [OSA_001006]
fraction unbound [1, 12]: 0.034
microsomal CLint [2, 13]: 127 µL/min/mg
MIC ([10]; read-out: MSSA MIC (UCL)): > 32 µg/mL
hepatocyte CLint [3, 16]: 209 µL/min/1e6 cells
chromatographic logD [4, 14]: 3.3
solubility [5, 15]: 26 µM (≈ 8.74 µg/mL)
MIC ([7]; UCL, read-out: MRSA MIC (UCL)): > 32 µg/mL

SMILES: CCN(CC)c1ccc(-c2c(-c3ccccn3)nc3ccccn23)cc1 [OSA_001011]
fraction unbound [1, 12]: 0.004
microsomal CLint [2, 13]: 159 µL/min/mg
MIC ([10]; read-out: MSSA MIC (UCL)): 4 µg/mL (≈ 11.7 µM)
hepatocyte CLint [3, 16]: 192 µL/min/1e6 cells
chromatographic logD [4, 14]: 4.3
solubility [5, 15]: 38 µM (≈ 13 µg/mL)
MIC ([7]; UCL, read-out: MRSA MIC (UCL)): 4 µg/mL (≈ 11.7 µM)

SMILES: Cc1ccc(-c2c(-c3ccccn3)nc3ccccn23)cc1 [OSA_001018]
fraction unbound [1, 12]: 0.011
HLM CLint (NEU) ([2]; human liver microsomes, NEU): 122 uL/min/mg protein
MIC ([10]; read-out: MSSA MIC (UCL)): 4 µg/mL (≈ 14 µM)
Rat Hep CLint (NEU) ([3]; rat hepatocytes, NEU): 57.7 uL/min/10x6 cells
chromatographic logD [4, 14]: 3.3
Aqueous Solubility (NEU) ([5]; NEU): 43 µM
MIC ([7]; UCL, read-out: MRSA MIC (UCL)): 4 µg/mL (≈ 14 µM)

SMILES: CC(C)CN(c1ccc(F)cc1)c1c(-c2ccccn2)nc2cc(F)ccn12 [OSA_001023]
fraction unbound [1, 17]: 0.0023
microsomal CLint [2, 22]: 13.6 µL/min/mg
MIC [10, 18]: 4 µg/mL (≈ 10.6 µM)
hepatocyte CLint [3, 19]: 110 µL/min/1e6 cells
chromatographic logD [4, 14]: 4.3
solubility [5, 20]: 11 µM (≈ 4.16 µg/mL)
MIC [7, 21]: 8 µg/mL (≈ 21.1 µM)

SMILES: CC(C)CN(c1ccc(F)cc1)c1c(-c2ccccn2)nc2ccc(F)cn12 [OSA_001024]
fraction unbound [1, 17]: 0.0014
microsomal CLint [2, 22]: 51.2 µL/min/mg
MIC [10, 18]: 8 µg/mL (≈ 21.1 µM)
hepatocyte CLint [3, 19]: 117 µL/min/1e6 cells
chromatographic logD [4, 14]: > 4.2
solubility [5, 20]: 17 µM (≈ 6.43 µg/mL)
MIC [7, 21]: 8 µg/mL (≈ 21.1 µM)

SMILES: Cc1ccc(-c2c(-c3ccccn3)nc3ccccn23)cc1 [compound 1018]
fraction unbound [1, 23]: 0.01
microsomal CLint [2, 24]: 122 µL/min/mg
MIC ([10]; read-out: MSSA MIC): 4 µg/mL (≈ 14 µM)
hepatocyte CLint [3, 25]: 57.7 µL/min/1e6 cells
chromatographic logD ([4]; pH 7.4, read-out: LogD7.4): 3.3
solubility ([5]; read-out: Aqueous Solubility): 43 µM (≈ 12.3 µg/mL)
MIC ([7]; 16 h, read-out: MRSA MIC): 4 µg/mL (≈ 14 µM)
MIC ([7]; read-out: MRSA MIC): 4 µg/mL (≈ 14 µM)

Now from value to compound, other results behind:

fraction unbound [1, 12]: 0.21
microsomal CLint [2, 13]: > 300 µL/min/mg
Rat Hep CLint (NEU) ([3]; rat hepatocytes, NEU): 52.9 uL/min/10x6 cells
chromatographic logD [4, 14]: 2.2
solubility [5, 15]: 723 µM (≈ 163 µg/mL)
MIC ([7]; UCL, read-out: MRSA MIC (UCL)): > 32 µg/mL
MIC ([8]; read-out: VRE MIC (UCL)): > 32 µg/mL
SMILES: COc1ccn2cc(-c3ccccn3)nc2c1 [OSA_000856]
PMM TC50 [6]: 64 µM
MRC5 TC50 [9]: 51.6 µM

fraction unbound [1, 12]: 0.035
microsomal CLint [2, 13]: 124 µL/min/mg
hepatocyte CLint [3, 16]: 12.9 µL/min/1e6 cells
chromatographic logD [4, 14]: 2.5
solubility [5, 15]: 37 µM (≈ 12.5 µg/mL)
MIC ([7]; UCL, read-out: MRSA MIC (UCL)): > 32 µg/mL
MIC ([8]; read-out: VRE MIC (UCL)): > 32 µg/mL
SMILES: COc1ccn2c(-c3cccc(Cl)n3)c(-c3ccccn3)nc2c1 [OSA_000857]
PMM TC50 [6]: 64 µM
MRC5 TC50 [9]: 24.2 µM

fraction unbound [1, 12]: 0.017
microsomal CLint [2, 13]: 148 µL/min/mg
MIC ([10]; read-out: MSSA MIC (UCL)): 16 µg/mL (≈ 52.6 µM)
hepatocyte CLint [3, 16]: 151 µL/min/1e6 cells
chromatographic logD [4, 14]: 3.3
MIC [11]: 32 µg/mL (≈ 105 µM)
solubility [5, 15]: 0.5 µM (≈ 0.152 µg/mL)
MIC ([7]; UCL, read-out: MRSA MIC (UCL)): 8 µg/mL (≈ 26.3 µM)
MIC ([8]; read-out: VRE MIC (UCL)): 32 µg/mL (≈ 105 µM)
SMILES: Fc1ccc(Nc2c(-c3ccccn3)nc3ccccn23)cc1 [OSA_000987]
MRC5 TC50 [9]: 7.65 µM and 6.04 µM

fraction unbound [1, 17]: 0.11
HLM CLint (uL/min/mg protein) (NEU) ([2]; human liver microsomes, NEU): 92 uL/min/mg protein
MIC [10, 18]: > 32 µg/mL
hepatocyte CLint [3, 19]: > 300 µL/min/1e6 cells
chromatographic logD [4, 14]: 2.4
solubility [5, 20]: 5 µM (≈ 1.91 µg/mL)
MIC [7, 21]: > 32 µg/mL
SMILES: CS(=O)(=O)c1ccc2nc(-c3ccccn3)c(Nc3ccc(F)cc3)n2c1 [OSA_001020]
PMM TC50 [6]: 32 µM
MRC5 TC50 [9]: 64 µM

fraction unbound [1, 23]: 0.01
microsomal CLint [2, 24]: 65.6 µL/min/mg
hepatocyte CLint [3, 25]: 104 µL/min/1e6 cells
chromatographic logD ([4]; pH 7.4, read-out: LogD7.4): 3.1
solubility ([5]; read-out: Aqueous Solubility): 5 µM (≈ 1.6 µg/mL)
MIC ([7]; 16 h, read-out: MRSA MIC): 4 µg/mL (≈ 12.5 µM)
MIC ([7]; read-out: MRSA MIC): 4 µg/mL (≈ 12.5 µM)
MIC ([8]; read-out: VRE MIC): 8 µg/mL (≈ 25 µM)
SMILES: Cc1ccc(-c2c(-c3ccccn3)nc3cc(Cl)ccn23)cc1 [compound 978]
